Where two headings read alike, the source gives them in different places.
What was measured:
[1] = Serum pharmacokinetics of DHM after PO and IP administration; assay type: in vivo, mice; conditions: for Tmax / half-life / Cmax / AUC(0-t): C57BL/6J, mouse, serum; for half-life: read-out: Serum T1/2 (converted); for IP AUC0→24 relative to PO AUC0→24: DHM 50 mg/kg; for Cmax / AUC(0-t): 50 mg/kg; for AUC(0-t): read-out: Serum AUC0→24
Procedure: Eight-week-old male and female C57BL/6J mice (Jackson’s Laboratories, Bar Harbor, ME, USA) were housed 4 mice to a cage (separated by sex) and maintained on 12-h light, 12-h dark cycles (lights on at 0700 h) in the animal facility at the Department of Animal Sciences, Rutgers University. Following 1-week acclimation, animals were given ad libitum access to water and a polyphenol-free diet (PFD; 3.82 kcal/g, 10% fat, 20% protein, 70% carbohydrate; D12450H; Research Diets, Inc., New Brunswick, NJ, USA) for at least 10 days. For PK studies, after an overnight fast, mice were administered 50 mg/kg DHM (dissolved in 0.9% saline with 10% DMSO) by either IP injection or oral gavage. Oral gavage was performed using single-use, sterile plastic feeding tubes for mice (20 ga × 30 mm; cat# FTP-20-30, Instech Laboratories, (Plymouth Meeting, PA, USA). Mice were deeply anesthetized with 5% isoflurane mixed with oxygen, and blood was collected by cardiac puncture. Following cardiac puncture, animals were exsanguinated and transcardial perfusion with 0.9% saline was performed to ensure blood removal from the brain tissue. Blood and brain samples were collected from a total of 85 mice at 0.25, 0.75, 1.5, 3, 6, 12, 24 h (3–4 mice for each sex and timepoint). Tissues were immediately homogenized with 0.2% formic acid at 1:2 (w/v), and frozen at −80 °C until analysis. Blood was centrifuged at 3000× g for 10 min at 4 °C to isolate serum. For efficacy studies, mice (n = 8/sex) were fasted at 5 h prior to Ethanol gavage 5 g/kg (37% Ethanol in water). DHM 50 mg/kg IP (dissolved in 0.9% saline with 10% DMSO) was administered at 0, 15, 45, 90 and 180 min prior to Ethanol oral gavage. Each mouse was tested at each time point 7 days apart over 6-week period. At the time of Ethanol gavage, mice were placed in oversized conical holders (L: 152 mm X W: 37 mm) and observed for ability to return upright upon being placed in a supine position. Duration of LORR was determined by ability to return upright 3 times within 30 s. To determine whether ethanol-induced tolerance developed, one week (Week 1; Baseline) prior to the 6-week repeated DHM dosing study all mice were oral dose with ethanol (5 g/kg) without any IP injection and LORR was measured. Mice were then re-tested in a similar fashion with oral ethanol 1 week after the DHM 6-week period (Week 8; Post). […] All animal studies were approved by the Institutional Animal Care and Use Committee of Rutgers University (Bello; PROTO999900014, OLAW #A3262-01, 15 March 2017) and complied with NIH Guide for the Care and Use of Laboratory Animals.
All serum samples were stored at −80 °C and conditioned to room temperature prior to analysis. An aliquot of 100 µL of serum, 20 µL 4M HCl, and 50 µL of internal standard (IS) solution (417 ng/mL isoquercetin in EtOAc) were combined in an Eppendorf tube. An aliquot of 500 µL of EtOAc was added and samples were vortexed for 30 s. Samples were then centrifuged at 3000× g for 2 min and the supernatant transferred to a glass vial. Samples were extracted 2 more times with EtOAc and the supernatant added to the corresponding vial containing 10 µL of 2% ascorbic acid in methanol (MeOH). Samples were then dried under vacuum, reconstituted with 100 µL of 45% MeOH in water with 0.1% formic acid (FA), centrifuged at 16,000× g for 10 min and transferred to an HPLC vial for analysis.
An Agilent 1290 Infinity II UPLC system interfaced with an Agilent 6470 Triple Quadrupole Mass Spectrometer with an electrospray ionization source (Agilent Technology, Palo Alto, CA, USA) was used for sample analysis. An Waters Acquity UPLC BEH C8 column (2.1 × 150 mm, 1.7 μm) (Milford, MA, USA) column with a VanGuard Acquity C8 guard column (2.1 × 5 mm, 1.7 μm) (Milford, MA, USA) was used for chromatographic separation. The binary mobile phases consisted of water with 0.1% FA (phase A) and acetonitrile (ACN) with 0.1% formic acid (phase B). The flow rate was set at 0.450 mL/min. […]

[2] = set-up: method as in PMID 28114854; conditions: cited from earlier work
[3] = female, ip, female mice, DHM 50 mg/kg IP
[4] = female, ip, female mice, DHM 50 mg/kg IP, mean ± SEM
[5] = female, po, female mice, DHM 50 mg/kg PO
[6] = female, po, female mice, DHM 50 mg/kg PO, mean ± SEM
[7] = male, ip, male mice, DHM 50 mg/kg IP
[8] = male, ip, male mice, DHM 50 mg/kg IP, mean ± SEM
[9] = male, po, male mice, DHM 50 mg/kg PO
[10] = male, po, male mice, DHM 50 mg/kg PO, mean ± SEM

O=C1c2c(O)cc(O)cc2O[C@H](c2cc(O)c(O)c(O)c2)[C@H]1O [DHM, Dihydromyricetin]
Tmax ([1]; female mice, DHM 50 mg/kg IP): 15 min | half-life ([1]; female mice, DHM 50 mg/kg IP): 45.6 min | Tmax ([1]; female mice, DHM 50 mg/kg PO): 15 min | half-life ([1]; female mice, DHM 50 mg/kg PO): 110 min | Tmax ([1]; male mice, DHM 50 mg/kg IP): 15 min | half-life ([1]; male mice, DHM 50 mg/kg IP): 95.4 min | Tmax ([1]; male mice, DHM 50 mg/kg PO): 15 min | half-life ([1]; male mice, DHM 50 mg/kg PO): 115 min | PO exposure levels in male mice relative to female mice ([1]; DHM 50 mg/kg PO): 3.5 times | IP AUC0→24 relative to PO AUC0→24 ([1]; female mice): 23.8 fold | Serum AUC0→24 ([1]; female mice, DHM 50 mg/kg PO): 0.7 µM·h | IP AUC0→24 relative to PO AUC0→24 ([1]; female mice, listed as dihydromyricetin): 7.2 fold | Cmax [1, 3]: 23.8 µM | Cmax [1, 4]: 23.8 µM | AUC(0-t) [1, 4]: 17.4 µM·h | AUC(0-t) [1, 3]: 17.3 µM·h | Cmax [1, 5]: 0.62 µM | Cmax [1, 6]: 0.623 ± 0.159 µM | AUC(0-t) [1, 6]: 0.728 ± 0.461 µM·h | AUC(0-t) [1, 5]: 0.728 µM·h | IP AUC0→24 relative to PO AUC0→24 ([1]; male mice): 7.2 fold | Serum AUC0→24 ([1]; male mice, DHM 50 mg/kg PO): 2.5 µM·h | IP AUC0→24 relative to PO AUC0→24 ([1]; male mice, listed as dihydromyricetin): 23.8 fold | Cmax [1, 7]: 38.3 µM | Cmax [1, 8]: 38.3 µM | AUC(0-t) [1, 8]: 18.1 µM·h | AUC(0-t) [1, 7]: 18.1 µM·h | Cmax [1, 9]: 1.9 µM | Cmax [1, 10]: 1.89 ± 0.59 µM | AUC(0-t) [1, 10]: 2.51 ± 0.988 µM·h | AUC(0-t) [1, 9]: 2.51 µM·h | stability in acidic environments ([2]; acidic environments, similar to upper GI tract): stable | stability in solutions with pH > 6 ([2]; pH > 6): unstable
